The values below come from ChEMBL document CHEMBL1201862, “PubChem BioAssay data set” (2004).

Each structure is given as a SMILES string.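 These data come from cells grown in 96-well plates and exposed to compound for 48 hours at five concentrations. GI50 is the concentration that inhibits growth by half.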 The source made the active and inactive calls. Rule as the data show it: active = GI50 up to about 1.1 µM and inactive = higher. Non-standard residues stand in square brackets, D forms with d. Residues, ends and D or L forms follow the SMILES beside them. *: point of attachment. Phe(4-NO2) = N[CH](Cc1ccc([N+](=O)[O-])cc1)C(=O)O; Boc = CC(C)(C)OC(=O)* Where only a bound is given, the exact number is not on record here.

Some test systems named below: 786-0; A498; ACHN; CAKI-1; HCC 2998; MCF7; MDA-MB-231; MDA-N; MOLT-4; Malme-3M; NCI-H226; NCI-H460; OVCAR-8; PC-3; SF-539; SK-MEL-28; SK-OV-3; SNB-75.
Common to all, as to experiment: growth of human tumour cells (NCI), 48 h

Turning to `Nc1c(C(=O)Nc2ccc([As](=O)(O)O)cc2)cnc2nnnn12`, the GI50 with 786-0, in the test on A498, in the test with ACHN, in the test on CAKI-1, in the test with HCC 2998 and in the test on MCF7 was > 100 µM (inactive) in each case. Moreover, the GI50 in the test on MDA-MB-231, in the test on MDA-N, with MOLT-4, in the test with Malme-3M, in the test on NCI-H226 and with NCI-H460 was > 100 µM (inactive) each time. Further, the GI50 in the test on OVCAR-8, with PC-3, in the test on SF-539, in the test with SK-MEL-28, in the test with SK-OV-3 and in the test on SNB-75 was > 100 µM (inactive) throughout.

Turning to `COc1ccc(OC)c(C(=O)/C=C/c2cc(O)c(O)cc2F)c1`, the GI50 with 786-0 is 2.28 µM (inactive); in the test with A498 it was 3.17 µM (inactive); in the test with ACHN, 2.27 µM (inactive); in the test with CAKI-1, 4.71 µM (inactive); in the test on HCC 2998 it was 0.538 µM (active); in the test on MCF7, 0.29 µM (active). The GI50 with MDA-MB-231 is 1.41 µM (inactive); with MDA-N it was 0.181 µM (active); in the test on MOLT-4, 0.321 µM (active); with Malme-3M, 2.47 µM (inactive); in the test with NCI-H226, 5.24 µM (inactive); in the test with NCI-H460, 2.14 µM (inactive). The GI50 with OVCAR-8 was 2.14 µM (inactive); in the test with PC-3 it was 4.18 µM (inactive); in the test with SF-539, 0.258 µM (active); in the test on SK-MEL-28, 1.85 µM (inactive); in the test on SK-OV-3 it was 3.35 µM (inactive); with SNB-75, 0.442 µM (active).

For the molecule `N#CCCN(CCC#N)CCN(CCN(CCC#N)CCC#N)CCN(CCC#N)CCC#N`, the GI50 with 786-0, with A498, in the test on ACHN, with CAKI-1, in the test on HCC 2998 and in the test with MCF7 was > 100 µM (inactive) in each case. The GI50 with MDA-MB-231, in the test with MDA-N, in the test on MOLT-4, in the test with Malme-3M, in the test on NCI-H226 and in the test with NCI-H460 was > 100 µM (inactive) in each case. The GI50 in the test on OVCAR-8, with PC-3, in the test with SF-539, in the test on SK-MEL-28, in the test on SK-OV-3 and in the test on SNB-75 was > 100 µM (inactive) each time.

`CCOC(=O)C1=CN/C(=C(/C)C(=O)OC)SC1C(=O)OCC` (centres undefined): the GI50 was > 100 µM (inactive) in the test with 786-0; > 100 µM (inactive) with A498; > 100 µM (inactive) with ACHN; > 100 µM (inactive) in the test on CAKI-1; > 100 µM (inactive) in the test on HCC 2998; > 93.5 µM (inactive) in the test with MCF7. In addition, the GI50 was > 100 µM (inactive) in the test on MDA-MB-231; > 100 µM (inactive) in the test with MDA-N; 25.6 µM (inactive) in the test with MOLT-4; > 100 µM (inactive) in the test on Malme-3M; > 100 µM (inactive) in the test with NCI-H226; > 90.4 µM (inactive) in the test on NCI-H460. The GI50 was > 100 µM (inactive) with OVCAR-8; 69.7 µM (inactive) in the test with PC-3; > 100 µM (inactive) with SF-539; > 100 µM (inactive) in the test on SK-MEL-28; > 100 µM (inactive) in the test with SK-OV-3; > 100 µM (inactive) in the test with SNB-75.

With `COc1cc2c(cc1OC)C1(c3ccccc3)CN(C2)Cc2cc(OC)c(OC)cc21`, the GI50 in the test on 786-0 was 31.6 µM (inactive); with A498, 35.2 µM (inactive); in the test on ACHN, 54.1 µM (inactive); in the test on CAKI-1, 40 µM (inactive); in the test with HCC 2998, 21.8 µM (inactive); in the test on MCF7, 33.3 µM (inactive). Also, the GI50 in the test on MDA-MB-231 is 24.3 µM (inactive); in the test on MDA-N, > 100 µM (inactive); in the test with MOLT-4 it was 25.5 µM (inactive); in the test on Malme-3M, 36.4 µM (inactive); with NCI-H226 it was 26.7 µM (inactive); with NCI-H460 it was 30.2 µM (inactive). Also, the GI50 is 40.6 µM (inactive) with OVCAR-8; 31.3 µM (inactive) in the test with PC-3; 19.3 µM (inactive) with SF-539; > 100 µM (inactive) with SK-MEL-28; 45.8 µM (inactive) in the test on SK-OV-3; 27.9 µM (inactive) in the test on SNB-75.

Turning to `CCC(C)C1=C(O)[N+]2([O-])Oc3ccc(-c4c(O)c(O)c(-c5ccc(O)cc5)c(OC(C)=O)c4OC(C)=O)cc3OC2(C(C)CC)C(=O)N1O` (centres undefined), the GI50 is 13.7 µM (inactive) with 786-0; > 50 µM (inactive) in the test with A498; > 50 µM (inactive) with ACHN; > 50 µM (inactive) with CAKI-1; 0.005 µM (active) with HCC 2998; > 50 µM (inactive) in the test with MCF7. In addition, the GI50 was > 50 µM (inactive) in the test with MDA-MB-231; 17.1 µM (inactive) in the test with MDA-N; 43.8 µM (inactive) in the test with MOLT-4; > 50 µM (inactive) with Malme-3M; > 50 µM (inactive) in the test with NCI-H226; > 50 µM (inactive) with NCI-H460. Further, the GI50 in the test on OVCAR-8, in the test on PC-3, in the test on SF-539, with SK-MEL-28, in the test on SK-OV-3 and with SNB-75 was > 50 µM (inactive) throughout.

For `O=C1OI(C#Cc2ccccc2)c2ccccc21`, the GI50 with 786-0 was 3.11 µM (inactive); in the test with A498, 4.57 µM (inactive); with ACHN, 2.18 µM (inactive); in the test on CAKI-1 it was 2.61 µM (inactive); with HCC 2998, 6.58 µM (inactive); with MCF7, 3.69 µM (inactive). Moreover, the GI50 is 6.1 µM (inactive) in the test on MDA-MB-231; 4.16 µM (inactive) in the test with MDA-N; 1.63 µM (inactive) with MOLT-4; 1.53 µM (inactive) in the test on Malme-3M; 5.26 µM (inactive) in the test with NCI-H226; 3.18 µM (inactive) with NCI-H460. The GI50 is 4.39 µM (inactive) with OVCAR-8; 4.54 µM (inactive) in the test with PC-3; 2.16 µM (inactive) in the test on SF-539; 5.48 µM (inactive) with SK-MEL-28; 12.2 µM (inactive) in the test with SK-OV-3; 3.89 µM (inactive) with SNB-75.

Turning to `COC(=O)CCC(NC(=O)OC(C)(C)C)C(=O)NC(Cc1ccc([N+](=O)[O-])cc1)C(=O)NC(CCC(=O)OC)C(=O)OC` (centres undefined) (Boc-Glu(OMe)-[Phe(4-NO2)]-Glu(OMe)-OMe; configuration not given here), the GI50 in the test on 786-0, in the test with A498, in the test with ACHN, with CAKI-1, with HCC 2998 and with MCF7 was > 100 µM (inactive) each time. Besides, the GI50 was > 100 µM (inactive) with MDA-MB-231; > 100 µM (inactive) with MDA-N; 24.9 µM (inactive) in the test with MOLT-4; > 100 µM (inactive) with Malme-3M; 74.8 µM (inactive) in the test on NCI-H226; 60.3 µM (inactive) with NCI-H460. The GI50 in the test on OVCAR-8 was > 100 µM (inactive); with PC-3, > 100 µM (inactive); with SF-539 it was 43.5 µM (inactive); in the test on SK-MEL-28, > 100 µM (inactive); in the test with SK-OV-3, > 100 µM (inactive); in the test with SNB-75 it was 33.1 µM (inactive).
